Values quoted from earlier work, collected in patent US20220095612A1, “MICRONUTRIENT COMPOSITIONS AND SYSTEMS AND METHODS OF USING SAME” (Nanochem Solutions, Inc., priority 2020, published 2022).

SMILES: N[C@@H](CC(=O)O)C(=O)O [L-aspartic acid]
- pH at which the alpha carboxyl deprotonates (alpha carboxyl group): about 2.09
- pH at which the carboxyl side group deprotonates (carboxyl side group): about 3.86
